# According to US6984649B1, “Pyridine derivatives” (Bayer Aktiengesellschaft, priority 2000, dated 2006):
# Counter-ions that a name gives are not always drawn.
# Test system: A549 human lung epithelium cell line
# Assay: RANTES production in response to TNF-α from A549 cells
# Type: cell-based
# Conditions: A549 cells, 100 ng/ml TNF-α, read-out: Cellular activity grade (A549) (Cellular IC50)
# In short: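 RANTES released into supernatant was measured by DELFIA-type sandwich immunoassay, Eu-labelled detection antibody, 340 nm excitation/615 nm emission, recombinant RANTES standard. Beforehand, cells seeded at 4×10^4/well received test compound (1% DMSO) for 1 h at 37 °C, followed by 24 h TNF-α (100 ng/ml) stimulation.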
row,IC50,Structure (SMILES)
1,< 1000 nM,N#Cc1c(C2CCCNC2)cc(-c2c(O)cccc2OCC2CCCO2)nc1N (stereo not drawn) [Example 2-81]

# Same assay, conditions: Homo sapiens, A549, A549 cells, 100 ng/ml TNF-α, read-out: Cellular activity grade (A549) (Cellular IC50)
row,IC50,Structure (SMILES)
1,< 1000 nM,CC(C)CCCOc1cccc(O)c1-c1cc(C2CCCNC2)c(C#N)c(N)n1 (stereo not drawn) [Example 2-63]
2,1000 to 10000 nM,CCCCCCCOc1cccc(O)c1-c1cc(C2CCCNC2)c(C#N)c(N)n1 (stereo not drawn) [Example 2-64]
3,< 1000 nM,N#Cc1c(C2CCCNC2)cc(-c2c(O)cccc2OCC2CC2)nc1N (stereo not drawn) [Example 2-65]
4,< 1000 nM,CC(C)CCCOc1cccc(O)c1-c1cc(C2CCNCC2)c(C#N)c(N)n1 [Example 2-66]
5,< 1000 nM,CCCOc1cccc(O)c1-c1cc(C2CCNCC2)c(C#N)c(N)n1 [Example 2-67]
6,< 1000 nM,N#Cc1c(C2CCNCC2)cc(-c2c(O)cccc2OCC2CCC2)nc1N [Example 2-68]
7,< 1000 nM,CCCCCOc1cccc(O)c1-c1cc(C2CCNCC2)c(C#N)c(N)n1 [Example 2-69]
8,< 1000 nM,N#Cc1c(C2CCNCC2)cc(-c2c(O)cccc2OCCC2CCCCC2)nc1N [Example 2-70]
9,< 1000 nM,CC(C)COc1cccc(O)c1-c1cc(C2CCNCC2)c(C#N)c(N)n1 [Example 2-71]
10,< 1000 nM,CCCCCCCOc1cccc(O)c1-c1cc(C2CCNCC2)c(C#N)c(N)n1 [Example 2-73]
11,< 1000 nM,C=CCOc1cccc(O)c1-c1cc(C2CCNCC2)c(C#N)c(N)n1 [Example 2-74]
12,< 1000 nM,CCOc1cccc(O)c1-c1cc(C2CCNCC2)c(C#N)c(N)n1 [Example 2-75]
13,< 1000 nM,CCCCCCOc1cccc(O)c1-c1cc(C2CCNCC2)c(C#N)c(N)n1 [Example 2-76]
14,< 1000 nM,CC(C)(C)C(=O)COc1cccc(O)c1-c1cc(C2CCCNC2)c(C#N)c(N)n1 (stereo not drawn) [Example 2-77]
15,< 1000 nM,CC(C)(C)C(=O)COc1cccc(O)c1-c1cc(C2CCNCC2)c(C#N)c(N)n1 [Example 2-78]
16,< 1000 nM,N#Cc1c(C2CCCNC2)cc(-c2c(O)cccc2OCC2CCCCO2)nc1N (stereo not drawn) [Example 2-79]
17,< 1000 nM,N#Cc1c(C2CCCNC2)cc(-c2c(O)cccc2OCC2CCCO2)nc1N (stereo not drawn) [Example 2-80]
18,< 1000 nM,N#Cc1c(C2CCNCC2)cc(-c2c(O)cccc2OCC2CCCO2)nc1N (stereo not drawn) [Example 2-82]
19,1000 to 10000 nM,N#Cc1c(C2CCCNC2)cc(-c2c(O)cccc2OCCN2CCCCC2)nc1N (stereo not drawn) [Example 2-83]
20,1000 to 10000 nM,N#Cc1c(C2CCCNC2)cc(-c2c(O)cccc2OCCN2CCOCC2)nc1N (stereo not drawn) [Example 2-84]
21,1000 to 10000 nM,CN(C)CCOc1cccc(O)c1-c1cc(C2CCCNC2)c(C#N)c(N)n1 (stereo not drawn) [Example 2-85]
22,1000 to 10000 nM,N#Cc1c(C2CCCNC2)cc(-c2c(O)cccc2OCCN2CCCCCC2)nc1N (stereo not drawn) [Example 2-86]
23,1000 to 10000 nM,N#Cc1c(C2CCCNC2)cc(-c2c(O)cccc2OCCN2CCCC2)nc1N (stereo not drawn) [Example 2-87]
24,< 1000 nM,"CCOC(=O)N1Cc2c(C3CCCNC3)cc(-c3c(O)cccc3OCC3CC3)nc2NC1=O (stereo not drawn) [Example 24-2, ethyl 7-[2-(cyclopropylmethoxy)-6-hydroxyphenyl]-2-oxo-5-(3-piperidinyl)-1,4-dihydropyrido[2,3-d]pyrimidine-3(2H)-carboxylate hydrochloride]"
25,< 1000 nM,"O=C1Nc2nc(-c3c(O)cccc3OCC3CC3)cc(C3CCCNC3)c2CN1C(=O)NC1CCCCC1 (stereo not drawn) [Example 24-3, N-cyclohexyl-7-[2-(cyclopropylmethoxy)-6-hydroxyphenyl]-2-oxo-5-(3-piperidinyl)-1,4-dihydropyrido[2,3-d]pyrimidine-3(2H)-carboxamide hydrochloride]"
26,< 1000 nM,"CS(=O)(=O)N1Cc2c(C3CCCNC3)cc(-c3c(O)cccc3OCC3CC3)nc2NC1=O (stereo not drawn) [Example 24-4, 7-[2-(cyclopropylmethoxy)-6-hydroxyphenyl]-3-(methylsulfonyl)-5-(3-piperidinyl)-3,4-dihydropyrido[2,3-d]pyrimidin-2(1H)-one hydrochloride]"
27,1000 to 10000 nM,"CCOC(=O)c1cc2c(C3CCCNC3)cc(-c3ccccc3O)nc2[nH]c1=O (stereo not drawn) [Example 25-1, ethyl 7-(2-hydroxyphenyl)-2-oxo-5-(3-piperidinyl)-1,2-dihydro-1,8-naphthyridine-3-carboxylate hydrochloride]"
28,< 1000 nM,"O=c1[nH]c2nc(-c3c(O)cccc3OCC3CC3)cc(C3CCCNC3)c2cc1F (stereo not drawn) [Example 25-2, 7-[2-(cyclopropylmethoxy)-6-hydroxyphenyl]-3-fluoro-5-(3-piperidinyl)-1,8-naphthyridin-2(1H)-one hydrochloride]"

# The next lines start with the compound.
row,Structure (SMILES),IC50
1,N#Cc1c(C2CCNCC2)cc(-c2ccccc2O)nc1N [Example 1-13],< 1000 nM
2,N#Cc1c(C2CCCCN2)cc(-c2ccccc2O)nc1N (stereo not drawn) [Example 1-14],1000 to 10000 nM
3,N#Cc1c(C2CNCCN2)cc(-c2ccccc2O)nc1N (stereo not drawn) [Example 1-15],1000 to 10000 nM
4,Cc1cccc(-c2cc(C3CCCNC3)c(C#N)c(N)n2)c1O (stereo not drawn) [Example 1-17],1000 to 10000 nM
5,N#Cc1c(C2CCCNC2)cc(-c2ccc(O)cc2O)nc1N (stereo not drawn) [Example 1-18],1000 to 10000 nM
6,N#Cc1c(C2CCCNC2)cc(-c2cccc(F)c2O)nc1N (stereo not drawn) [Example 1-19],< 1000 nM
7,N#Cc1c(C2CCCNC2)cc(-c2cccc(Cl)c2O)nc1N (stereo not drawn) [Example 1-20],< 1000 nM
8,Cc1cccc(O)c1-c1cc(C2CCCNC2)c(C#N)c(N)n1 (stereo not drawn) [Example 1-21],1000 to 10000 nM
9,N#Cc1c(C2CCC(N)CC2)cc(-c2ccccc2O)nc1N (stereo not drawn) [Example 1-22],< 1000 nM
10,N#Cc1c(C2CCCC(N)C2)cc(-c2ccccc2O)nc1N (stereo not drawn) [Example 1-23],< 1000 nM
11,N#Cc1c([C@@H](N)Cc2ccccc2)cc(-c2ccccc2O)nc1N [Example 1-25],1000 to 10000 nM
12,COc1ccc(C[C@H](N)c2cc(-c3ccccc3O)nc(N)c2C#N)cc1 [Example 1-26],1000 to 10000 nM
13,CCCC[C@H](N)c1cc(-c2ccccc2O)nc(N)c1C#N [Example 1-28],> 10000 nM
14,N#Cc1c([C@@H](N)CCc2ccccc2)cc(-c2ccccc2O)nc1N [Example 1-29],> 10000 nM
15,N#Cc1c([C@@H](N)Cc2ccc(F)cc2)cc(-c2ccccc2O)nc1N [Example 1-30],1000 to 10000 nM
16,N#Cc1c([C@@H]2CCCN2)cc(-c2ccccc2O)nc1N [Example 1-31],1000 to 10000 nM
17,C[C@H](N)c1cc(-c2ccccc2O)nc(N)c1C#N [Example 1-32],1000 to 10000 nM
18,CC(C)[C@H](N)c1cc(-c2ccccc2O)nc(N)c1C#N [Example 1-33],1000 to 10000 nM
19,N#Cc1c([C@H](N)Cc2ccccc2)cc(-c2ccccc2O)nc1N [Example 1-34],1000 to 10000 nM
20,N#Cc1c(CC(N)c2ccccc2)cc(-c2ccccc2O)nc1N (stereo not drawn) [Example 1-35],1000 to 10000 nM
21,N#Cc1c(CCN)cc(-c2ccccc2O)nc1N [Example 1-37],< 1000 nM
22,N#Cc1c(C2CCC(C(=O)O)CC2)cc(-c2ccccc2O)nc1N (stereo not drawn) [Example 1-38],1000 to 10000 nM
23,CCc1cc(-c2ccccc2O)nc(N)c1C#N [Example 1-39],> 10000 nM

row,Structure (SMILES),IC50
1,N#Cc1c([C@H](Cc2ccccc2)NC(=O)CCN2CCCCC2)cc(-c2ccccc2O)nc1N [Example 1-40],1000 to 10000 nM
2,N#Cc1c(C2CCCN(C(=O)CCN3CCCCC3)C2)cc(-c2ccccc2O)nc1N (stereo not drawn) [Example 1-41],1000 to 10000 nM
3,CS(=O)(=O)N1CCCC(c2cc(-c3ccccc3O)nc(N)c2C#N)C1 (stereo not drawn) [Example 1-42],1000 to 10000 nM
4,CCCN(CCC)C1CCCC(c2cc(-c3ccccc3O)nc(N)c2C#N)C1 (stereo not drawn) [Example 1-43],< 1000 nM
5,N#Cc1c(CCO)cc(-c2ccccc2O)nc1N [Example 1-44],1000 to 10000 nM
6,Cc1cccc(COc2cccc(O)c2-c2cc(C3CCCNC3)c(C#N)c(N)n2)c1 (stereo not drawn) [Example 2-07],1000 to 10000 nM
7,Cc1ccc(COc2cccc(O)c2-c2cc(C3CCCNC3)c(C#N)c(N)n2)cc1 (stereo not drawn) [Example 2-08],< 1000 nM
8,N#Cc1c(C2CCCNC2)cc(-c2c(O)cccc2OCc2cccc(C(F)(F)F)c2)nc1N (stereo not drawn) [Example 2-09],1000 to 10000 nM
9,N#Cc1c(C2CCCNC2)cc(-c2c(O)cccc2OCc2ccc(C(F)(F)F)cc2)nc1N (stereo not drawn) [Example 2-10],1000 to 10000 nM
10,N#Cc1c(C2CCCNC2)cc(-c2c(O)cccc2OCc2cccc(Br)c2)nc1N (stereo not drawn) [Example 2-11],1000 to 10000 nM
11,N#Cc1c(C2CCCNC2)cc(-c2c(O)cccc2OCc2ccccc2[N+](=O)[O-])nc1N (stereo not drawn) [Example 2-12],1000 to 10000 nM
12,N#Cc1c(C2CCCNC2)cc(-c2c(O)cccc2OCc2cccc([N+](=O)[O-])c2)nc1N (stereo not drawn) [Example 2-13],1000 to 10000 nM
13,N#Cc1c(C2CCCNC2)cc(-c2c(O)cccc2OCc2ccc([N+](=O)[O-])cc2)nc1N (stereo not drawn) [Example 2-14],< 1000 nM
14,N#Cc1cccc(COc2cccc(O)c2-c2cc(C3CCCNC3)c(C#N)c(N)n2)c1 (stereo not drawn) [Example 2-15],< 1000 nM
15,N#Cc1ccc(COc2cccc(O)c2-c2cc(C3CCCNC3)c(C#N)c(N)n2)cc1 (stereo not drawn) [Example 2-16],< 1000 nM
16,N#Cc1c(C2CCCNC2)cc(-c2c(O)cccc2OCc2ccccc2Cl)nc1N (stereo not drawn) [Example 2-17],1000 to 10000 nM
17,N#Cc1c(C2CCCNC2)cc(-c2c(O)cccc2OCc2cccc(Cl)c2)nc1N (stereo not drawn) [Example 2-18],1000 to 10000 nM
18,N#Cc1c(C2CCCNC2)cc(-c2c(O)cccc2OCc2ccc(Cl)cc2)nc1N (stereo not drawn) [Example 2-19],< 1000 nM
19,N#Cc1c(C2CCCNC2)cc(-c2c(O)cccc2OCc2c(Cl)cccc2Cl)nc1N (stereo not drawn) [Example 2-20],1000 to 10000 nM
20,N#Cc1c(C2CCCNC2)cc(-c2c(O)cccc2OCc2ccc3ccccc3c2)nc1N (stereo not drawn) [Example 2-21],< 1000 nM
21,N#Cc1c(C2CCCNC2)cc(-c2c(O)cccc2OCCC2CCCCC2)nc1N (stereo not drawn) [Example 2-61],< 1000 nM
22,N#Cc1c(C2CCCNC2)cc(-c2c(O)cccc2OCC2CCC2)nc1N (stereo not drawn) [Example 2-62],< 1000 nM

# Same assay, conditions: Homo sapiens, A549 cells, 100 ng/ml TNF-α, read-out: Cellular activity grade (A549) (Cellular IC50)
row,Structure (SMILES),IC50
1,CC(N)Cc1cc(-c2ccccc2O)nc(N)c1C#N (stereo not drawn) [Example 1-36],1000 to 10000 nM
